Measured values from ChEMBL document CHEMBL1152926, “Terpenoid constituents of Abies chensiensis with potential anti-inflammatory activity” (J Nat Prod, 2009).
Values after ≈ are worked out from the molar mass of the structure shown.

Key:
RAW264.7 [1] = assay: Cytotoxicity against mouse RAW264.7 cells; assay type: cell-based
RAW264.7 [2] = assay: Antiinflammatory activity in mouse RAW264.7 cells assessed as inhibition of LPS-induced nitric oxide production; assay type: functional, cell-based

| Structure (SMILES) | IC50 (RAW264.7 [1]) [µg/mL] | IC50 (RAW264.7 [2]) [µg/mL] |
| --- | --- | --- |
| C=C[C@@](C)(O)[C@H]1C[C@@H]2[C@@]3(C)CCCC(C)(C)[C@@H]3CC[C@@]2(C)O1 | 0.6 (≈ 1.96 µM) | 1.9 (≈ 6.2 µM) |
| C=C[C@@](C)(O)CC[C@H]1C(=C)CC[C@H]2C(C)(C)CCC[C@]12C [MANOOL] | 32.3 (≈ 111 µM) | 9.6 (≈ 33 µM) |
| CC1=CC(O)(C[C@@H](C)C2=CC[C@@]3(C)C4=C(CC[C@]23C)[C@@]2(C)CCC(=O)C(C)(C)[C@@H]2CC4)OC1=O (some centres not stated) [NEOABIESLACTONE E] | 20 (≈ 42.9 µM) | 9.1 (≈ 19.5 µM) |
| N=C(N)NN [PIMAGEDINE] |  | 3.4 (≈ 45.9 µM) |
